In patent US10519111B2, “UV absorbing compounds, compositions comprising same and uses thereof” (CORAL SUNSCREEN PTY LTD, priority 2013, dated 2019):

Columns and labels:
[1] = Critical wavelength (λcrit), approximate in-house measurement; type: physicochemical
Excerpt: As the precise test for critical wavelength was unable to be replicated exactly by the inventors due to the need for specialist equipment and a specific calibration of the spectrophotometer, these values are only approximate to a degree. […] This represents a highly useful result and so, compounds based around this benzoyl substitution pattern shown, are especially preferred.

[2] = UV absorption properties (λmax, molar extinction coefficient ε, efficiency E 1%, 1 cm); type: physicochemical
[3] = Table 1, covalently coupled compounds
[4] = Table 10, bis and mono enamine compounds
[5] = Table 13B, miscellaneous compounds
[6] = Table 13B, values in order of the λmax values
[7] = Table 13B, values in order of the λmax values, in M-1 cm-1
[8] = Table 1, values in order of the λmax values
[9] = Table 2, values in order of the λmax values
[10] = Table 6A, N-isobutyl-C3-benzoyl compounds
[11] = Table 7, values in order of the λmax values
[12] = Table 13A, miscellaneous compounds

With CC(C)CN1C=C(C(=O)CC/C=C/c2ccc(COc3ccc(C(=O)CC(=O)c4ccc(C(C)(C)C)cc4)cc3)cc2)C(C)(C)CC1 the λcrit [1, 3] was 375 nm.
In the case of Cc1ccc(N2C=CC(C)(C)CC2)cc1, the “E (1%, 1 cm)” value ([2]; Table 10) is reported as 1036, the λmax [2, 4] is reported as 278 nm and the ε ([2]; Table 10, in M-1 cm-1) is reported as 20823. It also gave a λcrit ([1]; Table 10) of 321 nm.
In the case of Cc1ccc(N2C=CC(C)(C)C=C2)cc1, the “E (1%, 1 cm)” value ([2]; Table 10) is reported as 1601, the λmax [2, 4] is reported as 283 nm and the ε ([2]; Table 10, in M-1 cm-1) is reported as 31871. For the same molecule, the λcrit ([1]; Table 10) was 317 nm.
In the case of CC1(C)C=CN(c2ccncc2)C=C1, the “E (1%, 1 cm)” value ([2]; Table 10) is reported as 977, the λmax [2, 4] is reported as 305 nm and the ε ([2]; Table 10, in M-1 cm-1) is reported as 18164. For the same molecule, the λcrit ([1]; Table 10) was 327 nm.
CCCN(CCC)c1ccc(C(=O)C2=CN(C(C)(C)C)CCC2(C)C)cc1 gave a λcrit ([1]; Table 13B) of 365 nm.
For CC1(C)CCN(C(C)(C)C)C=C1C(=O)c1ccc(Nc2ccccc2)cc1, the λmax [2, 5] was 315 nm, the “E (1%, 1 cm)” value [2, 6] was 737 and the ε [2, 7] was 26695. For the same molecule, the λcrit ([1]; Table 13B) was 361 nm.
In the case of Cc1ccc(N2C=C(C(=O)N(CCCCN(C(=O)C3=CN(c4ccc(C)cc4)CCC3(C)C)c3ccccc3)c3ccccc3)C(C)(C)CC2)cc1, the λmax [2, 5] is reported as 325 nm, the “E (1%, 1 cm)” value [2, 6] is reported as 608 and the ε [2, 7] is reported as 42215. It also gave a λcrit ([1]; Table 13B) of 346 nm.
In the case of CC1(C)CCN(C(C)(C)C)C=C1C(=O)/C=C/c1ccc(/C=C/C(=O)C2=CN(C(C)(C)C)CCC2(C)C)cc1, the λmax [2, 5] is reported as 386 nm, the “E (1%, 1 cm)” value [2, 6] is reported as 705 and the ε [2, 7] is reported as 36404. The λcrit ([1]; Table 13B) was 390 nm.
With CC1(C)CCN(c2ccc(C(C)(C)C)cc2)C=C1C(=O)N(Cc1ccc(CN(C(=O)C2=CN(c3ccc(C(C)(C)C)cc3)CCC2(C)C)c2ccccc2)cc1)c1ccccc1 the λmax [2, 5] was 326 nm, the “E (1%, 1 cm)” value [2, 6] was 567 and the ε [2, 7] was 46937. It also gave a λcrit ([1]; Table 13B) of 352 nm.
In the case of CC1(C)CCN(C(C)(C)C)C=C1C(=O)N(CCCCN(C(=O)C1=CN(C(C)(C)C)CCC1(C)C)c1ccccc1)c1ccccc1, the λmax [2, 5] is reported as 312 nm, the “E (1%, 1 cm)” value [2, 6] is reported as 354 and the ε [2, 7] is reported as 22166. For the same molecule, the λcrit ([1]; Table 13B) was 357 nm.
With CC1(C)CCN(c2ccccc2)C=C1C(=O)/C=C/c1ccc(/C=C/C(=O)C2=CN(c3ccccc3)CCC2(C)C)cc1 the λcrit ([1]; Table 13B) was 390 nm.
For CC1(C)CCN(C(C)(C)C)C=C1C(=O)/C=C/c1c2ccccc2c(/C=C/C(=O)C2=CN(C(C)(C)C)CCC2(C)C)c2ccccc12, the λcrit ([1]; Table 13B) was 389 nm.
In the case of CC1(C)CCN(C(C)(C)C)C=C1C(=O)c1ccc(N2CCCN(c3ccc(C(=O)C4=CN(C(C)(C)C)CCC4(C)C)cc3)CC2)cc1, the λcrit ([1]; Table 13B) is reported as 365 nm.
For CC1(C)CCN(c2ccc(C(C)(C)C)cc2)C=C1C(=O)C1c2ccccc2-c2ccccc21 [Compound 205, (1-(4-(tert-butyl)phenyl)-4,4-dimethyl-1,4,5,6-tetrahydropyridin-3-yl)(9H-fluoren-9-yl)methanone], the “UV λmax” value [2] was 339 nm and the “ε (molar extinction coefficient)” value ([2]; values in order of the λmax values) was 30745 M⁻¹ cm⁻¹.
Work on COc1ccc(C(=O)C(CCCCCC(=O)C2=CN(CC(C)C)CCC2(C)C)C(=O)c2ccc(C(C)(C)C)cc2)cc1 (stereo not drawn) [drawing 45] yielded a λmax [2, 3] of 306 nm.
With C=CCCC(=O)C1=CN(CC(C)C)CCC1(C)C [drawing 46] the λmax [2, 3] was 308 nm, the “Ε (1%, 1 cm)” value [2, 8] was 1417 and the ε [2, 8] was 35000 M⁻¹ cm⁻¹.
In the case of CC(C)CN1C=C(C(=O)c2ccc(C(C)(C)C)cc2)C(C)(C)CC1 [drawing 51], the λmax ([2]; Table 2, compounds 11-13) is reported as 317 nm, the “Ε (1%, 1 cm)” value [2, 9] is reported as 581 and the ε [2, 9] is reported as 19000 M⁻¹ cm⁻¹.
Molecule COc1ccc(C(=O)C2=CN(CC(C)C)CCC2(C)C)cc1 [drawing 52] has a λmax ([2]; Table 2, compounds 11-13) of 319 nm.
COc1ccc(C(=O)CC(=O)C2=CN(CC(C)C)CCC2(C)C)cc1 [drawing 53] gave a λcrit ([1]; Table 2, compounds 11-13) of 389 nm.
CC1(C)CCN(C(C)(C)C)C=C1C(=O)CC(=O)c1ccccc1 [drawing 76] showed a λcrit ([1]; Table 5) of 385 nm.
With CC(C)CN1C=C(C(=O)c2ccc(Br)cc2)C(C)(C)CC1 [drawing 84] the “E (1%, 1 cm)” value ([2]; Table 6A) was 642, the ε ([2]; Table 6A) was 22500 M⁻¹ cm⁻¹ and the λmax [2, 10] was 318 nm.
For CC(C)CN1C=C(C(=O)c2ccc3c(c2)CCO3)C(C)(C)CC1 [drawing 85], the “E (1%, 1 cm)” value ([2]; Table 6A) was 831, the ε ([2]; Table 6A) was 22000 M⁻¹ cm⁻¹ and the λmax [2, 10] was 320 nm.
For CC(C)CN1C=C(C(=O)c2ccc(-c3ccccc3)cc2)C(C)(C)CC1 [drawing 86], the “E (1%, 1 cm)” value ([2]; Table 6A) was 509, the ε ([2]; Table 6A) was 18000 M⁻¹ cm⁻¹ and the λmax [2, 10] was 320 nm.
In the case of CC(C)CN1C=C(C(=O)c2ccccc2)C(C)(C)CC1 [drawing 87], the “E (1%, 1 cm)” value ([2]; Table 6A) is reported as 701, the ε ([2]; Table 6A) is reported as 19000 M⁻¹ cm⁻¹ and the λmax [2, 10] is reported as 316 nm.
With CC(C)CN1C=C(C(=O)c2ccc(C(=O)C3=CN(CC(C)C)CCC3(C)C)cc2)C(C)(C)CC1 [drawing 88] the “E (1%, 1 cm)” value ([2]; Table 6A) was 547, the ε ([2]; Table 6A) was 20000 M⁻¹ cm⁻¹ and the λmax [2, 10] was 320 nm.
In the case of CC(C)CN1C=C(C(=O)c2cc(C(=O)C3=CN(CC(C)C)CCC3(C)C)cc(C(=O)C3=CN(CC(C)C)CCC3(C)C)c2)C(C)(C)CC1 [drawing 89], the “E (1%, 1 cm)” value ([2]; Table 6A) is reported as 502, the ε ([2]; Table 6A) is reported as 33000 M⁻¹ cm⁻¹ and the λmax [2, 10] is reported as 316 nm.
For CC(C)CN1C=C(C(=O)c2ccc(C(=O)c3ccccc3)cc2)C(C)(C)CC1 [drawing 90], the “E (1%, 1 cm)” value ([2]; Table 6A) was 200, the ε ([2]; Table 6A) was 7500 M⁻¹ cm⁻¹ and the λmax [2, 10] was 295 nm.
For COc1ccc(C(=O)C2=CN(CC(C)C)CCC2(C)C)c(OC)c1 [drawing 91], the “E (1%, 1 cm)” value ([2]; Table 6A) was 286, the ε ([2]; Table 6A) was 9500 M⁻¹ cm⁻¹ and the λmax [2, 10] was 313 nm.
In the case of CC(C)=CC(=O)C1=CN(CC(C)C)CCC1(C)C [drawing 107], the λmax ([2]; Table 7, unsaturated compounds) is reported as 314 nm, the “E (1%, 1 cm)” value [2, 11] is reported as 757 and the ε [2, 11] is reported as 19000 M⁻¹ cm⁻¹.
In the case of C=C(C)CC(=O)C1=CN(CC(C)C)CCC1(C)C [drawing 108], the λmax ([2]; Table 7, unsaturated compounds) is reported as 306 nm, the “E (1%, 1 cm)” value [2, 11] is reported as 574 and the ε [2, 11] is reported as 14500 M⁻¹ cm⁻¹.
With C=C/C=C/CC(=O)C1=CN(CC(C)C)CCC1(C)C [drawing 109] the λmax ([2]; Table 7, unsaturated compounds) was 311 nm, the “E (1%, 1 cm)” value [2, 11] was 1053 and the ε [2, 11] was 27500 M⁻¹ cm⁻¹.
With C=CCC(=O)C1=CN(CC(C)C)CCC1(C)C [drawing 110] the λmax ([2]; Table 7, unsaturated compounds) was 310 nm, the “E (1%, 1 cm)” value [2, 11] was 1102 and the ε [2, 11] was 27000 M⁻¹ cm⁻¹.
Work on CC(C)CN1C=C(C(=O)/C=C/C=Cc2ccccc2)C(C)(C)CC1 [drawing 115] yielded a λcrit ([1]; Table 7) of 387 nm.
In the case of C=C(C)C(=O)C1=CN(CC(C)C)CCC1(C)C [drawing 116], the λmax ([2]; Table 7, unsaturated compounds) is reported as 310 nm, the “E (1%, 1 cm)” value [2, 11] is reported as 806 and the ε [2, 11] is reported as 18950 M⁻¹ cm⁻¹.
CC(C)CN1C=C(C(=O)C(C#N)=C(c2ccccc2)c2ccccc2)C(C)(C)CC1 [drawing 118] showed a λcrit ([1]; Table 7) of 357 nm.
With CC1(C)C=CN(c2ccccc2)CC1 [drawing 121] the “E (1%, 1 cm)” value ([2]; Table 8a) was 1205, the ε ([2]; Table 8a) was 22550 M⁻¹ cm⁻¹ and the λmax ([2]; Table 8a, N-phenyl compounds) was 278 nm.
For CC1(C)C=CN(c2ccccc2)C=C1 [drawing 125], the “E (1%, 1 cm)” value ([2]; Table 8a) was 866, the ε ([2]; Table 8a) was 16000 M⁻¹ cm⁻¹ and the λmax ([2]; Table 8a, N-phenyl compounds) was 285 nm.
Work on COc1ccc(N2C=CC(C)(C)CC2)cc1 [drawing 126] yielded a λmax ([2]; Table 8a, N-phenyl compounds) of 275 nm.
CCC(=O)C1=CN(CC(C)C)C(=O)CC1(C)C [drawing 169] showed a λmax [2, 12] of 291 nm.
CC(C)CN1C=C(C(=O)CCC(=O)O)C(C)(C)CC1 [drawing 171] gave a λmax [2, 12] of 308 nm.
For CC(C)CN1C=C(C(=O)C(c2ccccc2)c2ccccc2)C(C)(C)CC1 [drawing 172], the “E (1%, 1 cm)” value ([2]; Table 13A) was 716, the ε ([2]; Table 13A) was 26000 M⁻¹ cm⁻¹ and the λmax [2, 12] was 314 nm.
In the case of CC(C)CN1C=C(S(=O)(=O)c2ccccc2)C(C)(C)CC1 [drawing 173], the “E (1%, 1 cm)” value ([2]; Table 13A) is reported as 359, the ε ([2]; Table 13A) is reported as 11000 M⁻¹ cm⁻¹ and the λmax [2, 12] is reported as 285 nm.
